Measured values reported in the NIST ThermoML archive (doi:10.1016/j.tca.2012.01.007).

Experiment: wn = mass fraction of the nth substance listed
Conditions: 101 kPa, Liquid, Vibrating tube method

OCCNCCO [diethanolamine] + O
Conditions	mass density [kg/m3]
283.14 K, w1 = 1	1103.88
283.15 K, w1 = 0.1007	1011.98
283.15 K, w1 = 0.2002	1024.98
283.15 K, w1 = 0.2997	1038.45
283.15 K, w1 = 0.3999	1052.36
283.15 K, w1 = 0.5003	1065.24
283.15 K, w1 = 0.6024	1077.85
283.15 K, w1 = 0.6999	1088.2
283.15 K, w1 = 0.8004	1096.55
283.15 K, w1 = 0.8534	1099.73
283.15 K, w1 = 0.8995	1101.58
283.16 K, w1 = 0.9316	1102.57
283.16 K, w1 = 0.9591	1103.24
293.14 K, w1 = 0.8995	1095.4
293.15 K, w1 = 0.1007	1010.01
293.15 K, w1 = 0.2002	1022.35
293.15 K, w1 = 0.2997	1035.07
293.15 K, w1 = 0.3999	1048.19
293.15 K, w1 = 0.5003	1060.32
293.15 K, w1 = 0.6024	1072.33
293.15 K, w1 = 0.6999	1082.23
293.15 K, w1 = 0.8004	1090.42
293.15 K, w1 = 0.8534	1093.59
293.15 K, w1 = 0.9316	1096.37
293.15 K, w1 = 0.9591	1096.98
293.15 K, w1 = 1	1097.51
303.14 K, w1 = 0.6024	1066.59
303.14 K, w1 = 0.6999	1076.15
303.14 K, w1 = 0.8995	1089.06
303.14 K, w1 = 1	1091.06
303.15 K, w1 = 0.2002	1018.95
303.15 K, w1 = 0.2997	1031.08
303.15 K, w1 = 0.3999	1043.56
303.15 K, w1 = 0.8004	1084.12
303.15 K, w1 = 0.8534	1087.26
303.15 K, w1 = 0.9316	1090.01
303.15 K, w1 = 0.9591	1090.59
303.16 K, w1 = 0.1007	1007.1
303.16 K, w1 = 0.5003	1055.09
313.14 K, w1 = 0.6024	1060.6
313.14 K, w1 = 0.8004	1077.72
313.14 K, w1 = 1	1084.49
313.15 K, w1 = 0.1007	1003.4
313.15 K, w1 = 0.2002	1014.87
313.15 K, w1 = 0.3999	1038.5
313.15 K, w1 = 0.6999	1069.91
313.15 K, w1 = 0.8534	1080.78
313.15 K, w1 = 0.8995	1082.55
313.15 K, w1 = 0.9316	1083.49
313.15 K, w1 = 0.9591	1084.06
313.16 K, w1 = 0.2997	1026.54
313.16 K, w1 = 0.5003	1049.55
323.14 K, w1 = 0.5003	1043.69
323.14 K, w1 = 0.6024	1054.36
323.14 K, w1 = 1	1077.78
323.15 K, w1 = 0.1007	999.014
323.15 K, w1 = 0.2002	1010.18
323.15 K, w1 = 0.6999	1063.49
323.15 K, w1 = 0.8004	1071.18
323.15 K, w1 = 0.8534	1074.21
323.15 K, w1 = 0.8995	1075.95
323.15 K, w1 = 0.9316	1076.86
323.15 K, w1 = 0.9591	1077.4
323.16 K, w1 = 0.2997	1021.47
323.16 K, w1 = 0.3999	1033.03
333.14 K, w1 = 0.8995	1069.24
333.14 K, w1 = 1	1071
333.15 K, w1 = 0.1007	994.007
333.15 K, w1 = 0.2002	1004.93
333.15 K, w1 = 0.2997	1015.93
333.15 K, w1 = 0.3999	1027.17
333.15 K, w1 = 0.5003	1037.44
333.15 K, w1 = 0.6024	1047.86
333.15 K, w1 = 0.6999	1056.8
333.15 K, w1 = 0.8534	1067.5
333.15 K, w1 = 0.9316	1070.14
333.15 K, w1 = 0.9591	1070.66
333.16 K, w1 = 0.8004	1064.48
343.14 K, w1 = 0.2997	1009.93
343.14 K, w1 = 0.6024	1041.1
343.14 K, w1 = 0.6999	1049.92
343.14 K, w1 = 0.8995	1062.39
343.14 K, w1 = 1	1064.14
343.15 K, w1 = 0.1007	988.445
343.15 K, w1 = 0.2002	999.169
343.15 K, w1 = 0.3999	1020.9
343.15 K, w1 = 0.5003	1030.89
343.15 K, w1 = 0.8534	1060.63
343.15 K, w1 = 0.9316	1063.3
343.15 K, w1 = 0.9591	1063.82
343.16 K, w1 = 0.8004	1057.6
353.14 K, w1 = 0.2997	1003.5
353.14 K, w1 = 0.5003	1024.01
353.14 K, w1 = 0.6999	1042.78
353.14 K, w1 = 0.8995	1055.38
353.14 K, w1 = 0.9316	1056.33
353.14 K, w1 = 0.9591	1056.87
353.15 K, w1 = 0.1007	982.774
353.15 K, w1 = 0.2002	992.938
353.15 K, w1 = 0.3999	1014.25
353.15 K, w1 = 0.6024	1034.05
353.15 K, w1 = 0.8004	1050.51
353.15 K, w1 = 0.8534	1053.58
353.15 K, w1 = 1	1056.83
